Test results taken from US10703784B2, “Antigens and epitopes derived from Mycobacterium tuberculosis” (priority 2011, dated 2020).
Several values for one entry are separate records, joined by “and”; a condition that tells them apart may be missing. Equal values may be shown once.

Assays:
Format in all cases: cell-based, human
[1] = system: CD4-purified cells from LTBI donors; details: range over donors analyzed
[2] = system: PBMCs from LTBI donors (IFN-γ production); details: individual MTB epitope peptide; one value per responding LTBI donor
[3] = system: PBMCs depleted of CD4+ or CD8+ T cells; details: phenotype of the responding T cells per donor; n.d. = assay not done

Sequence	effector memory T cells among tetramer+ cells [1]	naïve (CCR7+CD45RA+) among tetramer+ cells [1]	SFC [2]	T cell phenotype [3]
MSQIMYNYPAMMAHA (listed as Mycobacterium tuberculosis) [Rv0288/Rv3019c]	4.8-17.2%	9.8-37.1%	–	–
SSYAATEVANAAAAS	–	–	60.0	CD4
WFINWYLPISQLFYN	–	–	40.0	undetectable
YAAALVAMPTLAELA	–	–	25.0	undetectable
YASVEAANASPLQVA	–	–	35.0	undetectable
YVAWMSATAALAREA	–	–	150.0 and 83.3 and 58.3 and 25.0	CD4 (3×) and undetectable
